Laboratory results: patent publication US20220096431A1, “PHARMACEUTICAL COMPOSITION AND METHOD FOR PREVENTING, TREATING AND DIAGNOSING A NEURODEGENERATIVE DISEASE” (BUDDHIST TZU CHI MEDICAL FOUNDATION, priority 2020, published 2022)

What was measured:
SH-SY5Y = assay: Aβ1-42 poisoning experiment in SH-SY5Y cells (MTT); format: cell-based, human; settings: n-butylidenephthalide 100 μM, vitamin C 200 μM, alone or in combination, Aβ1-42 1 μM
Source text: Then, the cell viability is detected by a cell survival test using (3-(4,5-dimethylthiazol-2-yl)-2,5-diphenyltetrazolium bromide (MTT) assay.

Notch signaling = settings: background; cited from earlier work
3xTg AD mice = assay: Morris water maze test in AD-3xTg mice; format: in vivo
Protocol: Red dot, starting point of the swim; green dot, end point of the swim.
N=4 for wild-type and 10 mg/kg donepezil-treated 3xTg mice. N=6 for vehicle-treated 3xTg mice, 60 mg/kg n-BP-treated 3xTg mice, and 120 mg/kg n-BP-treated 3xTg mice. *p-value<0.05, **p-value<0.01 (Student's t-test). […] After 4-12 months, the B6 (C57/BL6) control mice have no AP accumulation (Green color).
The mice behavioral experiment using Morris water maze is a classical test to detect short-term memory and complex memory. Through its behavior, it can be determined whether there is a difference in memory after drug treatment. […] Two sessions were conducted on Day 1 as follows: (1) mice were placed in the swimming pool to adapt to the environment for a training duration of 120 seconds; (2) a hidden rest platform was added to the pool at a precise location in the northwest corner of the pool (blue diamond in the east; red circle in the west and yellow triangle in the south as shown in FIG. 7G) and the mice were allowed for to swim in the pool for a duration of another 120 seconds. If the rescue platform was not found by the mouse within the allocated time, the mouse was guided to the platform. The test for finding the rescue platform is carried out for the next four consecutive days, with each session lasting 90 seconds. The result is collected and analyzed.

3′-UTR of PSEN-1 = assay: Dual luciferase assay with PSEN-1 3′-UTR reporter constructs in SH-SY5Y cells; format: cell-based, human; settings: 50 nM miR-29b-2-5p
Protocol: The relative ratios of Renilla and firefly luciferase activity were measured.
The specificity and inhibitory effect of miRNA-29b-2-5p on the specific sequence of PSEN-1 can be confirmed by a dual luciferase assay. The dual luciferase assay includes two luminescence proteins, namely firefly luciferase (molecular weight 61 kDa, emission wavelength at about 560 nm) isolated from firefly (Photlnus pyralls) and Renilla luciferase (molecular weight 31 kDa, emission wavelength at about 480 nm) isolated from Renilla reniformis, which are combined with the sequence to be analyzed and cloned into a vector for amplification. After transfection into cells, the cells emit luminescence. To investigate the influence of these complementary sites, neuroblastoma cell line (SH-SY5Y) as shown in FIG. 2D is used as the cell model and 2 constructs containing continuous complementary (wild type) and noncomplementary (mutant) target site were designed as shown in FIG. 2E. The constructs were then transfected with a miR-29b-2-5p mimic into the SH-SY5Y cell line. The present disclosure uses three different PSEN-1 sequences for dual luciferase analysis, including the wild-type 3′-UTR sequence of PSEN-1, the site 2 mutant having a mutation at site 2 sequence of PSEN-1 that is predicted to be complementary to miRNA-29b-2-5p and double mutant in which both the site 1 and site 2 sequences, which are the sequences of PSEN-1 predicted to be complementary to miRNA-29b-2-5p, are mutated.

[1] = system: PSEN-1, PSEN-2, Aβ1-42 and NICD in C6-C99 cells; assay: Western blotting of amyloid-related proteins in C6-C99 cells; format: cell-based; settings: C6-C99 cells transfected with miR-29b-2-5p mimic; compared with control cells; n=3
Source text: FIG. 3B to FIG. 3E are the quantitative results of the Western blotting analysis of PSEN-1, PSEN-2, β-amyloid 1-42 (Aβ1-42) and NICD in FIG. 3A, respectively (p*<0.05, p**<0.01). The C6-C99 cells used in FIGS. 3A to 3E are glioma cells having a fragment of human amyloid precursor protein (APP). This fragment is a peptide fragment with 99 amino acids (APP-C99), which can express large amounts of PSEN-1, PSEN-2, and Aβ 1-42 after activation by cumate.
Western blotting is used to detect the expression levels of amyloid-related proteins, including PSEN-1, PSEN-2, and β-amyloid 1-42 (Aβ1-42), while simultaneously detect the expression level of Notch protein (Notch intracellular domain, NICD), which is an indicator of drug safety. If the Notch protein is not affected, then drug safety is indicated.
APP-C99 was transfected into C6 cells with the C99 peptide through cumate-inducible system activation.

lnc-CYP3A43-2 = assay: Biotin-based pulldown assay with real-time PCR; settings: real-time PCR of miRNA; n=3
Source text: Then, a biotin-based pulldown assay was used to validate this interaction. The result shown in FIG. 6H indicates the lnc-CYP3A43-2 can affect target miR-29b-2-5p (41.84-fold).

[2] = system: PSEN-1, PSEN-2, Aβ1-42 and NICD in C6-C99 cells; assay: Western blotting of amyloid-related proteins in C6-C99 cells; format: cell-based; settings: C6-C99 cells transfected with miR-29b-2-5p mimic, compared with control cells, n=3

**Q.** For `O=C1O[C@H]([C@@H](O)CO)C(O)=C1O` [vitamin C, ascorbic acid, reference compound], which “Cell survival, protection against Aβ1-42 damage” value (SH-SY5Y) is on record?
**A.** has an effect on increasing cell survival

**Q.** Which Adverse reactions (Notch signaling) does the source give for `CC(C)[C@H](O)C(=O)N[C@@H](C)C(=O)N[C@@H]1C(=O)N(C)CCc2ccccc21` [LY450139] here?
**A.** causes skin tumors and differentiation of intestinal epithelial cell

**Q.** And the “Effect on Notch signaling” value (Notch signaling)?
**A.** damages Notch signaling

**Q.** Which “Locating and arriving at the resting platform” value (3xTg AD mice; 120 mg/kg n-BP, donepezil as positive control) does the source give for `COc1cc2c(cc1OC)C(=O)C(CC1CCN(Cc3ccccc3)CC1)C2` (stereo not shown) [donepezil, reference compound] here?
**A.** able to quickly locate and arrive at the resting platform

**Q.** What about the “Time required to find the platform” value (3xTg AD mice; Day 5, 120 mg/kg n-BP, 10 mg donepezil/kg, vs untreated 3xTg mice) of the same compound?
**A.** significantly lower

**Q.** With “miR-29b-2-5p: mature miRNA-29b-2-5p nucleic acid, sequence cugguuucacaugguggcuuag (SEQ ID NO.: 1); used as mimic (CUGGUUUCACAUGGUGGCUUAG; listed as RNA, chemistry not given here; listed as Homo sapiens)” as the compound, how does the “Luminescence of reporter, PSEN-1 double site mutant” value (3′-UTR of PSEN-1) read?
**A.** abolished the inhibitory effect

**Q.** What about the “Luminescence of reporter, PSEN-1 site 2 mutant” value (3′-UTR of PSEN-1) of the same compound?
**A.** abolished the inhibitory effect

**Q.** And the “Luminescence of reporter, wild type 3′-UTR of PSEN-1” value (3′-UTR of PSEN-1)?
**A.** decreased the expression of the reporter

**Q.** And the “Luminescence of reporter, PSEN-1 double site mutant” value (3′-UTR of PSEN-1; listed as miRNA-29b-5p)?
**A.** no significant difference in the luminescence emitted

**Q.** What about the “Luminescence of reporter, PSEN-1 site 2 mutant” value (3′-UTR of PSEN-1; listed as miRNA-29b-5p) of the same compound?
**A.** no significant difference in the luminescence

**Q.** And the “Luminescence of reporter, wild type 3′-UTR of PSEN-1” value (3′-UTR of PSEN-1; listed as miRNA-29b-5p)?
**A.** the luminescence emitted was inhibited

**Q.** What about the PSEN1 expression [1] of the same compound?
**A.** 100%±19.31%

**Q.** And the “miR-29b-2-5p in lnc-CYP3A43-2 pulldown” value (lnc-CYP3A43-2)?
**A.** 41.84 fold

**Q.** And the Aβ1-42 expression [2]?
**A.** 48.75%±26.77%

**Q.** And the Aβ1-42 expression ([2]; listed as miRNA-29b-2-5p)?
**A.** decreased

**Q.** And the PSEN1 expression ([2]; listed as miRNA-29b-2-5p)?
**A.** decreased
